From the supplement of paper PMC10307832

Key:
Experiment in all cases: relative viability (nuclei count vs DMSO), 5 days (fraction); higher = more cells survive
[1] = compound: C1=CC2=C(C=C(C(=C2N=C1)O)N=NC3=CC4=C(C=C3)C=C(C=C4)S(=O)(=O)O)S(=O)(=O)O + COc1cc2c(Oc3ccc(NC(=O)C4(C(=O)Nc5ccc(F)cc5)CC4)cc3F)ccnc2cc1OCCCN1CCOCC1 [Foretinib] (partner 0.25 µM)
How it was run: (§1)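 Lung cancer cell lines in 1536-well plates were dosed by pin tool the day after seeding, either with one drug alone or with a fixed anchor-drug dose plus five library-drug doses (not always all listed) in √10 steps. After 5 days, cells were fixed and their nuclei stained in one step (final 0.05% Triton X-100, 1% formaldehyde, 1 ug/ml Hoechst), then counted on 4× images. Relative viability is the nuclei count in treated wells divided by that in vehicle wells. Values are medians of duplicate plates.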

[2] = compound: C1=CC2=C(C=C(C(=C2N=C1)O)N=NC3=CC4=C(C=C3)C=C(C=C4)S(=O)(=O)O)S(=O)(=O)O + CS(=O)(=O)CCNCc1ccc(-c2ccc3ncnc(Nc4ccc(OCc5cccc(F)c5)c(Cl)c4)c3c2)o1 [Lapatinib] (partner 2 µM)
How it was run: as §1

AT-7519 = compound: O=C(NC1CCNCC1)c1n[nH]cc1NC(=O)c1c(Cl)cccc1Cl [AT-7519]
How it was run: (§2)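 Lung cancer cell lines received five library-drug doses (not always all listed) spaced by √10, pinned on vehicle-anchored 1536-well plates after an overnight stay at 37 °C. Five days later, with no medium change, nuclei were Hoechst-stained, imaged at 4× and counted with MetaXpress. Viability is treated-well nuclei relative to vehicle-well nuclei, as a median across plates. Passing plates had control CV below 25% and at least one doubling.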

[3] = compound: C1=CC2=C(C=C(C(=C2N=C1)O)N=NC3=CC4=C(C=C3)C=C(C=C4)S(=O)(=O)O)S(=O)(=O)O
How it was run: as §2

Q: How did the relative viability ([1]; first compound 0.08 µM) turn out when UMC-11 was run?
A: 1.13

Q: And the relative viability ([1]; first compound 0.253 µM)?
A: 1.04

Q: What about the relative viability ([1]; first compound 0.8 µM) of the same cell line?
A: 0.938

Q: And the relative viability ([1]; first compound 2.53 µM)?
A: 1.05

Q: What about the relative viability ([1]; first compound 8 µM) of the same cell line?
A: 1.01

Q: What about the relative viability ([2]; first compound 0.08 µM) of the same cell line?
A: 1.07

Q: And the relative viability ([2]; first compound 0.253 µM)?
A: 0.969

Q: What about the relative viability ([2]; first compound 0.8 µM) of the same cell line?
A: 0.889

Q: And the relative viability ([2]; first compound 2.53 µM)?
A: 1.02

Q: What about the relative viability ([2]; first compound 8 µM) of the same cell line?
A: 0.716

Q: And the relative viability (AT-7519; 0.01 µM)?
A: 0.951

Q: What about the relative viability (AT-7519; 0.03162 µM) of the same cell line?
A: 0.934

Q: And the relative viability (AT-7519; 0.3162 µM)?
A: 0.765

Q: And the relative viability (AT-7519; 1 µM)?
A: 0.499

Q: And the relative viability ([3]; 0.08 µM)?
A: 1.11

Q: And the relative viability ([3]; 0.253 µM)?
A: 0.942

Q: What about the relative viability ([3]; 0.8 µM) of the same cell line?
A: 0.925

Q: What about the relative viability ([3]; 2.53 µM) of the same cell line?
A: 1.02

Q: And the relative viability ([3]; 8 µM)?
A: 0.92
